Like-named read-outs stand apart in the source and are kept apart here.
Tests used:
colon cancer = conditions: model of colon cancer; cited from earlier work
[1] = phase I, patients with a variety of cancers; cited from earlier work
HL60 cells [2] = assay: Cell cycle analysis (propidium iodide, flow cytometry); assay type: cell-based; conditions: azacitidine 128 nM 72 and 96 hours, CNDAC 133 nM by 48 hours
Description: (§1) (A) HL60 cells were treated with 128 nM azacitidine for 24 hours followed by 128 nM azacitidine and 133 nM CNDAC for a further 48 hours. Cells were fixed and DNA stained with propidium iodide. Single agent controls were also included. (B) HL60 cells were treated with 128 nM azacitidine for 24 hours followed by 128 nM azacitidine and 133 nM CNDAC for a further 48 hours. Cells were stained with annexin V that detected apoptotic cells and propidium iodide to detect viable cells. Single agent controls were also included. Data is the average of two samples and representative of at least two independent experiments.
(A) HL60 cells were treated with 128 nM azacitidine for 24 hours followed by 128 nM azacitidine and 133 nM CNDAC for a further 72 hours. Cells were fixed and DNA stained with propidium iodide. Single agent controls were also included. […] Cells were stained with annexin V that detected apoptotic cells and propidium iodide to detect viable cells. […]
For combination analysis, cells were treated with azacitidine for 24 hours followed by a further 48 or 72 hours with azacitidine and CNDAC. […] Prior to analysis cells were washed twice in PBS containing 1% BSA followed by staining with propidium iodide (50 μg/ml) and ribonuclease A (50 μg/ml) in PBS containing 0.1% Triton X-100 and the cell cycle profile was determined by flow cytometry.

HL60 cells [3] = assay: Immunoblotting of cell lysates for cleaved PARP; assay type: cell-based; conditions: HL-60; 0.13 μM azacitidine, 0.13 μM CNDAC; 48 h-96 h total treatment
Description: Samples were collected at various times (indicated) after CNDAC addition. Cells were lysed, fractionated by SDS-PAGE, transferred to nitrocellulose and probed for cleaved PARP (a marker of apoptosis). Data is representative of two independent experiments.
HL-60 cells were treated with DMSO, 0.13 μM azacitidine, 0.13 μM CNDAC or both agents (AC). The schedule involved 24 h azacitidine or DMSO pretreatment followed by the addition of CNDAC or DMSO for the indicated times. Cells were harvested after 48 h-96 h total treatment time. The resulting lysates (20 μg) were resolved on 12% acrylamide Bis-Tris gels, transferred to nitrocellulose membranes and probed with the antibodies shown in FIG. 3. […] Cleaved PARP was also seen in the combination treatment.

HL60 cells [4] = assay: Annexin V staining (apoptosis, flow cytometry); assay type: cell-based; conditions: for apoptotic cells (annexin V): 96 hours total treatment, azacitidine 128 nM, CNDAC 133 nM for 72 hours; for proportion of apoptotic cells (annexin V, in words): azacitidine 72 and 96 hours, CNDAC 48 or 72 hours
Description: as §1
as §1, with “72” for “48”
Single agent treatments were also performed as controls.

[5] = system: cell line that is resistant to cytarabine; conditions: cited from earlier work

| SMILES | anticancer activity (colon cancer) | dose limiting toxicity [1] | tolerability [1] | effect on cell cycle profile (in words) (HL60 cells [2]) | induction of cleaved PARP (marker of apoptosis) (HL60 cells [3]) | apoptotic cells (annexin V) (HL60 cells [4]) | proportion of apoptotic cells (annexin V, in words) (HL60 cells [4]) | IC50 ([5]; after 5-azacitidine (upregulation of dCK)) | IC50 ([5]; before 5-azacitidine) |
| --- | --- | --- | --- | --- | --- | --- | --- | --- | --- |
| CCCCCCCCCCCCCCCC(=O)Nc1ccn(C2O[C@H](CO)[C@@H](O)[C@@H]2C#N)c(=O)n1 (stereo partly drawn) [(I), 1-(2-C-cyano-2-dioxy-β-D-arabino-pentofuranosyl)-N^4-palmitoyl cytosine] | strong anticancer activity | myelosuppression | well tolerated |  |  |  |  |  |  |
| N#C[C@H]1[C@H](O)[C@@H](CO)O[C@H]1n1ccc(N)nc1=O [CNDAC, 1-(2-C-Cyano-2-deoxy-β-D-arabino-pentafuranosyl)-cytosine] |  |  |  | accumulation of cells in G2/M | induced cleaved PARP at later time points | 16.5% | little effect |  |  |
| Nc1ncn([C@@H]2O[C@H](CO)[C@@H](O)[C@H]2O)c(=O)n1 [azacitidine, 4-amino-1-β-D-ribofuranosyl-s-triazin-2(1H)-one, reference compound] |  |  |  | accumulation of cells in sub-G1, G2/M, and >G2/M | small induction in cleaved PARP at early time points | 30.5% | small increase in the proportion of apoptotic cells |  |  |
| Nc1ccn([C@@H]2O[C@H](CO)[C@@H](O)[C@@H]2O)c(=O)n1 [cytarabine] |  |  |  |  |  |  |  | 0.55 µM | 12.5 µM |
